Laboratory results published in patent US8114991B2, “Amino-1,3,5-triazines N-substituted with chiral bicyclic radicals, process for their preparation, compositions thereof, and their use as herbicides and plant growth regulators” (Bayer Cropscience AG, priority 2003, dated 2012).

Tests used:
[1] = test system: harmful plants such as Sinapis alba, Echinochloa crus-galli, Lolium multiflorum, Stellaria media, Cyperus iria, Amaranthus retroflexus, Setaria viridis, Avena …; assay: Post-emergence effect on weeds (greenhouse pot test); format: in vivo; details: application rate of 2 kg or less of active ingredient per hectare; treated in the three-leaf stage; scored after approx. 3 to 4 weeks by comparison with untreated controls
[2] = test system: harmful plants such as Stellaria media, Lolium multiforum, Amaranthus retroflexus, Sinapis alba, Avena sativa and Setaria viridis; assay: Pre-emergence effect on weeds (greenhouse pot test); format: in vivo; details: application rate of 1 kg or less of active ingredient per hectare; scored after 3 to 4 weeks by comparison with untreated controls
From the text: Seeds or rhizome pieces of monocotyledonous and dicotyledonous weed plants were placed in sandy loam in plastic pots and covered with soil. The compounds according to the invention, which were formulated in the form of wettable powders or emulsion concentrates, were then applied to the surface of the soil cover as aqueous suspension or emulsion at various dosages with an application rate of 600 to 800 l of water per ha (converted).
After the treatment, the pots were placed into a greenhouse and kept under good growth conditions for the weeds. The plant or emergence damage was scored visually after the test plants have emerged after an experimental time of 3 to 4 weeks by comparison with untreated controls.

CCc1nc(N)nc(N[C@H]2c3cc(C)ccc3C[C@@H]2C)n1 [Compound 7.75]
herbicidal post-emergence activity against harmful plants (scored visually) [1]: very good herbicidal post-emergence activity | pre-emergence control of harmful plants (plant or emergence damage scored visually) [2]: very good pre-emergence control

CCc1nc(N)nc(N[C@H]2c3ccccc3CC[C@@H]2C)n1 [Compound 7.78]
herbicidal post-emergence activity against harmful plants (scored visually) [1]: very good herbicidal post-emergence activity | pre-emergence control of harmful plants (plant or emergence damage scored visually) [2]: very good pre-emergence control

C[C@H]1CCc2ccccc2[C@@H]1Nc1nc(N)nc(C(C)(C)F)n1 [Compound 7.203]
herbicidal post-emergence activity against harmful plants (scored visually) [1]: very good herbicidal post-emergence activity | pre-emergence control of harmful plants (plant or emergence damage scored visually) [2]: very good pre-emergence control

C[C@H]1Cc2ccccc2[C@@H]1Nc1nc(N)nc(C(C)(C)F)n1 [Compound 7.228]
herbicidal post-emergence activity against harmful plants (scored visually) [1]: very good herbicidal post-emergence activity | pre-emergence control of harmful plants (plant or emergence damage scored visually) [2]: very good pre-emergence control

Cc1ccc2c(c1)[C@H](Nc1nc(N)nc(C(C)(C)F)n1)[C@@H](C)C2 [Compound 7.229]
herbicidal post-emergence activity against harmful plants (scored visually) [1]: very good herbicidal post-emergence activity | pre-emergence control of harmful plants (plant or emergence damage scored visually) [2]: very good pre-emergence control

Cc1ccc2c(c1)[C@H](Nc1nc(N)nc(CCSC(F)(F)F)n1)[C@@H](C)C2 [Compound 7.238]
herbicidal post-emergence activity against harmful plants (scored visually) [1]: very good herbicidal post-emergence activity | pre-emergence control of harmful plants (plant or emergence damage scored visually) [2]: very good pre-emergence control

C[C@H]1Cc2ccccc2[C@@H]1Nc1nc(N)nc(C(F)(F)F)n1 [Compound 7.239]
herbicidal post-emergence activity against harmful plants (scored visually) [1]: very good herbicidal post-emergence activity | pre-emergence control of harmful plants (plant or emergence damage scored visually) [2]: very good pre-emergence control

Cc1ccc2c(c1)[C@H](Nc1nc(N)nc(C(F)(F)F)n1)[C@@H](C)C2 [Compound 7.240]
herbicidal post-emergence activity against harmful plants (scored visually) [1]: very good herbicidal post-emergence activity | pre-emergence control of harmful plants (plant or emergence damage scored visually) [2]: very good pre-emergence control

C[C@H]1Cc2ccccc2[C@@H]1Nc1nc(N)nc(CCSC(F)(F)F)n1 [Compound 7.241]
herbicidal post-emergence activity against harmful plants (scored visually) [1]: very good herbicidal post-emergence activity | pre-emergence control of harmful plants (plant or emergence damage scored visually) [2]: very good pre-emergence control

C[C@H]1Cc2ccccc2[C@@H]1Nc1nc(N)nc(CC#N)n1 [Compound 7.242]
herbicidal post-emergence activity against harmful plants (scored visually) [1]: very good herbicidal post-emergence activity | pre-emergence control of harmful plants (plant or emergence damage scored visually) [2]: very good pre-emergence control

C[C@H]1Cc2ccccc2[C@@H]1Nc1nc(N)nc(C(F)F)n1 [Compound 7.244]
herbicidal post-emergence activity against harmful plants (scored visually) [1]: very good herbicidal post-emergence activity | pre-emergence control of harmful plants (plant or emergence damage scored visually) [2]: very good pre-emergence control

Cc1ccc2c(c1)[C@H](Nc1nc(C)nc(N)n1)CC2 [Compound 8.2]
herbicidal post-emergence activity against harmful plants (scored visually) [1]: very good herbicidal post-emergence activity | pre-emergence control of harmful plants (plant or emergence damage scored visually) [2]: very good pre-emergence control

Cc1nc(N)nc(N[C@@H]2CCc3ccc(F)cc32)n1 [Compound 8.3]
herbicidal post-emergence activity against harmful plants (scored visually) [1]: very good herbicidal post-emergence activity | pre-emergence control of harmful plants (plant or emergence damage scored visually) [2]: very good pre-emergence control

Cc1nc(N)nc(N[C@@H]2CCc3cc(C)c(C)cc32)n1 [Compound 8.7]
herbicidal post-emergence activity against harmful plants (scored visually) [1]: very good herbicidal post-emergence activity | pre-emergence control of harmful plants (plant or emergence damage scored visually) [2]: very good pre-emergence control

Cc1nc(N)nc(N[C@@H]2CCCc3ccccc32)n1 [Compound 8.11]
herbicidal post-emergence activity against harmful plants (scored visually) [1]: very good herbicidal post-emergence activity | pre-emergence control of harmful plants (plant or emergence damage scored visually) [2]: very good pre-emergence control

Cc1ccc2c(c1)[C@H](Nc1nc(C)nc(N)n1)CCC2 [Compound 8.12]
herbicidal post-emergence activity against harmful plants (scored visually) [1]: very good herbicidal post-emergence activity | pre-emergence control of harmful plants (plant or emergence damage scored visually) [2]: very good pre-emergence control

Cc1cc(C)c2c(c1)[C@H](Nc1nc(C)nc(N)n1)CCC2 [Compound 8.15]
herbicidal post-emergence activity against harmful plants (scored visually) [1]: very good herbicidal post-emergence activity | pre-emergence control of harmful plants (plant or emergence damage scored visually) [2]: very good pre-emergence control

Cc1ccc2c(c1)[C@H](Nc1nc(C)nc(N)n1)CCO2 [Compound 8.21]
herbicidal post-emergence activity against harmful plants (scored visually) [1]: very good herbicidal post-emergence activity | pre-emergence control of harmful plants (plant or emergence damage scored visually) [2]: very good pre-emergence control

CCc1nc(N)nc(N[C@@H]2CCc3ccccc32)n1 [Compound 8.24]
herbicidal post-emergence activity against harmful plants (scored visually) [1]: very good herbicidal post-emergence activity | pre-emergence control of harmful plants (plant or emergence damage scored visually) [2]: very good pre-emergence control

CCc1nc(N)nc(N[C@@H]2CCc3ccc(C)cc32)n1 [Compound 8.25]
herbicidal post-emergence activity against harmful plants (scored visually) [1]: very good herbicidal post-emergence activity | pre-emergence control of harmful plants (plant or emergence damage scored visually) [2]: very good pre-emergence control

CCc1nc(N)nc(N[C@@H]2CCc3ccc(F)cc32)n1 [Compound 8.26]
herbicidal post-emergence activity against harmful plants (scored visually) [1]: very good herbicidal post-emergence activity | pre-emergence control of harmful plants (plant or emergence damage scored visually) [2]: very good pre-emergence control

CCc1nc(N)nc(N[C@@H]2CCCc3ccccc32)n1 [Compound 8.34]
herbicidal post-emergence activity against harmful plants (scored visually) [1]: very good herbicidal post-emergence activity | pre-emergence control of harmful plants (plant or emergence damage scored visually) [2]: very good pre-emergence control

CCc1nc(N)nc(N[C@@H]2CCCc3ccc(C)cc32)n1 [Compound 8.35]
herbicidal post-emergence activity against harmful plants (scored visually) [1]: very good herbicidal post-emergence activity | pre-emergence control of harmful plants (plant or emergence damage scored visually) [2]: very good pre-emergence control

CCc1nc(N)nc(N[C@@H]2CCCc3c(C)cc(C)cc32)n1 [Compound 8.38]
herbicidal post-emergence activity against harmful plants (scored visually) [1]: very good herbicidal post-emergence activity | pre-emergence control of harmful plants (plant or emergence damage scored visually) [2]: very good pre-emergence control

CCc1nc(N)nc(N[C@@H]2CCOc3ccc(C)cc32)n1 [Compound 8.44]
herbicidal post-emergence activity against harmful plants (scored visually) [1]: very good herbicidal post-emergence activity | pre-emergence control of harmful plants (plant or emergence damage scored visually) [2]: very good pre-emergence control

CCCc1nc(N)nc(N[C@@H]2CCc3ccc(C)cc32)n1 [Compound 8.48]
herbicidal post-emergence activity against harmful plants (scored visually) [1]: very good herbicidal post-emergence activity | pre-emergence control of harmful plants (plant or emergence damage scored visually) [2]: very good pre-emergence control

CCCc1nc(N)nc(N[C@@H]2CCc3ccc(F)cc32)n1 [Compound 8.49]
herbicidal post-emergence activity against harmful plants (scored visually) [1]: very good herbicidal post-emergence activity | pre-emergence control of harmful plants (plant or emergence damage scored visually) [2]: very good pre-emergence control

CCCc1nc(N)nc(N[C@@H]2CCCc3ccc(C)cc32)n1 [Compound 8.58]
herbicidal post-emergence activity against harmful plants (scored visually) [1]: very good herbicidal post-emergence activity | pre-emergence control of harmful plants (plant or emergence damage scored visually) [2]: very good pre-emergence control

CCCc1nc(N)nc(N[C@@H]2CCCc3c(C)cc(C)cc32)n1 [Compound 8.61]
herbicidal post-emergence activity against harmful plants (scored visually) [1]: very good herbicidal post-emergence activity | pre-emergence control of harmful plants (plant or emergence damage scored visually) [2]: very good pre-emergence control

Cc1ccc2c(c1)[C@H](Nc1nc(N)nc(C(C)C)n1)CC2 [Compound 8.67]
herbicidal post-emergence activity against harmful plants (scored visually) [1]: very good herbicidal post-emergence activity | pre-emergence control of harmful plants (plant or emergence damage scored visually) [2]: very good pre-emergence control

CC(C)c1nc(N)nc(N[C@@H]2CCc3ccc(F)cc32)n1 [Compound 8.68]
herbicidal post-emergence activity against harmful plants (scored visually) [1]: very good herbicidal post-emergence activity | pre-emergence control of harmful plants (plant or emergence damage scored visually) [2]: very good pre-emergence control

Cc1ccc2c(c1)[C@H](Nc1nc(N)nc(C(C)C)n1)CCC2 [Compound 8.71]
herbicidal post-emergence activity against harmful plants (scored visually) [1]: very good herbicidal post-emergence activity | pre-emergence control of harmful plants (plant or emergence damage scored visually) [2]: very good pre-emergence control

Cc1ccc2c(c1)[C@H](Nc1nc(N)nc(C(C)C)n1)CCO2 [Compound 8.75]
herbicidal post-emergence activity against harmful plants (scored visually) [1]: very good herbicidal post-emergence activity | pre-emergence control of harmful plants (plant or emergence damage scored visually) [2]: very good pre-emergence control

Cc1ccc2c(c1)[C@H](Nc1nc(N)nc(C(C)(Cl)Cl)n1)CC2 [Compound 8.79]
herbicidal post-emergence activity against harmful plants (scored visually) [1]: very good herbicidal post-emergence activity | pre-emergence control of harmful plants (plant or emergence damage scored visually) [2]: very good pre-emergence control

Nc1nc(CF)nc(N[C@@H]2CCc3ccccc32)n1 [Compound 8.90]
herbicidal post-emergence activity against harmful plants (scored visually) [1]: very good herbicidal post-emergence activity | pre-emergence control of harmful plants (plant or emergence damage scored visually) [2]: very good pre-emergence control

Nc1nc(CF)nc(N[C@@H]2CCCc3ccccc32)n1 [Compound 8.100]
herbicidal post-emergence activity against harmful plants (scored visually) [1]: very good herbicidal post-emergence activity | pre-emergence control of harmful plants (plant or emergence damage scored visually) [2]: very good pre-emergence control

Nc1nc(CCl)nc(N[C@@H]2CCc3ccccc32)n1 [Compound 8.113]
herbicidal post-emergence activity against harmful plants (scored visually) [1]: very good herbicidal post-emergence activity | pre-emergence control of harmful plants (plant or emergence damage scored visually) [2]: very good pre-emergence control
